In brackets after ≈: the same amount, converted by molar mass.
test system: WI-38 VA13; experiment: Effective concentration required to cause cytotoxicity to tumorigenic cell line WI-38 VA-13 subline 2RA; type: functional, cell-based; details: Homo sapiens

Row | SMILES | EC50
1 | COc1ccc(OC)c(C(=O)c2sc3nc(-c4cccs4)ccc3c2N)c1 | 0.079 µg/mL (≈ 0.199 µM)
2 | COc1cccc(C(=O)c2sc3nc(-c4cccs4)ccc3c2N)c1 | 0.03 µg/mL (≈ 0.0819 µM)
3 | COc1ccccc1C(=O)c1sc2nc(-c3cccs3)ccc2c1N | 0.059 µg/mL (≈ 0.161 µM)
4 | CCC(=O)c1sc2nc(-c3cccs3)ccc2c1N | 0.89 µg/mL (≈ 3.09 µM)
5 | Nc1c(C(=O)c2ccc(F)c(F)c2)sc2nc(-c3cccs3)ccc12 | > 4 µg/mL
6 | Nc1c(C(=O)c2ccc(Br)cc2)sc2nc(-c3cccs3)ccc12 | 2.8 µg/mL (≈ 6.74 µM)
7 | Nc1c(C(=O)c2cccc([N+](=O)[O-])c2)sc2nc(-c3cccs3)ccc12 | 0.15 µg/mL (≈ 0.393 µM)
8 | Nc1c(C(=O)c2ccccc2)sc2nc(-c3cccs3)ccc12 | 0.09 µg/mL (≈ 0.268 µM)
9 | CCOC(=O)c1sc2nc(-c3cccs3)ccc2c1N | > 4 µg/mL
10 | CC(C)(C)C(=O)c1sc2nc(-c3cccs3)ccc2c1N | 0.57 µg/mL (≈ 1.8 µM)
11 | CN(C)c1c(C(=O)c2ccccc2)sc2nc(-c3cccs3)ccc12 | > 4 µg/mL
12 | CCOC(=O)c1oc2cc(-c3ccccc3)cc(OC)c2c1C | > 4 µg/mL
13 | COc1ccc(C(=O)c2sc3nc(-c4cccs4)ccc3c2N)cc1 | 0.77 µg/mL (≈ 2.1 µM)
14 | CC(=O)c1sc2nc(-c3cccs3)ccc2c1N | 2.7 µg/mL (≈ 9.84 µM)
15 | Nc1c(C(=O)c2ccc(F)cc2)sc2nc(-c3cccs3)ccc12 | 1.8 µg/mL (≈ 5.08 µM)
16 | COc1ccc(C(=O)c2sc3nc(-c4cccs4)ccc3c2N)c(OC)c1 | 0.52 µg/mL (≈ 1.31 µM)
17 | Nc1c(C(=O)c2cccc(Br)c2)sc2nc(-c3cccs3)ccc12 | 0.5 µg/mL (≈ 1.2 µM)
18 | Nc1c(C(=O)c2ccc(F)cc2F)sc2nc(-c3cccs3)ccc12 | 2.3 µg/mL (≈ 6.18 µM)
19 | CNc1c(C(=O)c2ccccc2)sc2nc(-c3cccs3)ccc12 | 0.42 µg/mL (≈ 1.2 µM)
20 | Nc1c(C(=O)c2cccc(F)c2)sc2nc(-c3cccs3)ccc12 | 0.025 µg/mL (≈ 0.0705 µM)

Reference: ChEMBL document CHEMBL1147459, “Thienopyridine and benzofuran derivatives as potent anti-tumor agents possessing different structure-activity relationships” (Bioorg Med Chem Lett, 2004)
